In ChEMBL document CHEMBL5226282, “TLR2 Agonistic Small Molecules: Detailed Structure-Activity Relationship, Applications, and Future Prospects” (J Med Chem, 2021):

Legend:
[1] = target: Toll-like receptor 1/2 (Homo sapiens, UniProt O60603+Q15399); assay: Agonist activity at TLR2/TLR1 in human THP-1 cells; type: cell-based
[2] = target: Toll-like receptor 1/2 (Mus musculus); assay: Agonist activity at TLR2/TLR1 in mouse Macrophage cell line

Chain of Toll-like receptor 1/2 (O60603 whole entry): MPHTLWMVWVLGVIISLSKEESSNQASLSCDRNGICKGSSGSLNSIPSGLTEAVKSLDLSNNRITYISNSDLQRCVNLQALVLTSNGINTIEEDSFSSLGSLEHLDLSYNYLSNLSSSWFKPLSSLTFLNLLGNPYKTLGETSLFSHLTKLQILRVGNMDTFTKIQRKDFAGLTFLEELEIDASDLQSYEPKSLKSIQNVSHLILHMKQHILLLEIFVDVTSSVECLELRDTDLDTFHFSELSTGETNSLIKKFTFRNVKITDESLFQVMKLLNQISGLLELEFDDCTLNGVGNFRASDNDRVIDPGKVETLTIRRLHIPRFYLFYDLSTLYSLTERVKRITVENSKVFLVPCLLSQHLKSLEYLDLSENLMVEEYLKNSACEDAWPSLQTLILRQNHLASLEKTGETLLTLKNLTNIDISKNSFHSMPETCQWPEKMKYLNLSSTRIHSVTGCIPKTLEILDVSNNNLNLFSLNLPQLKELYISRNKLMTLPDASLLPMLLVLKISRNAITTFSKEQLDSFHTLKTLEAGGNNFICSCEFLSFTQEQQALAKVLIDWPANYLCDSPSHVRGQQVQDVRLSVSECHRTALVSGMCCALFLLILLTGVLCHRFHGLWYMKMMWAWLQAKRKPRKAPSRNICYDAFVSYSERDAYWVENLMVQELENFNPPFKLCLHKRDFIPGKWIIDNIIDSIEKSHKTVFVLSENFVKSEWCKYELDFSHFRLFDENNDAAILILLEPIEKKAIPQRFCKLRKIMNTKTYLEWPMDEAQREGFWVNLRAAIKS
Chain of Toll-like receptor 1/2 (Q15399 whole entry): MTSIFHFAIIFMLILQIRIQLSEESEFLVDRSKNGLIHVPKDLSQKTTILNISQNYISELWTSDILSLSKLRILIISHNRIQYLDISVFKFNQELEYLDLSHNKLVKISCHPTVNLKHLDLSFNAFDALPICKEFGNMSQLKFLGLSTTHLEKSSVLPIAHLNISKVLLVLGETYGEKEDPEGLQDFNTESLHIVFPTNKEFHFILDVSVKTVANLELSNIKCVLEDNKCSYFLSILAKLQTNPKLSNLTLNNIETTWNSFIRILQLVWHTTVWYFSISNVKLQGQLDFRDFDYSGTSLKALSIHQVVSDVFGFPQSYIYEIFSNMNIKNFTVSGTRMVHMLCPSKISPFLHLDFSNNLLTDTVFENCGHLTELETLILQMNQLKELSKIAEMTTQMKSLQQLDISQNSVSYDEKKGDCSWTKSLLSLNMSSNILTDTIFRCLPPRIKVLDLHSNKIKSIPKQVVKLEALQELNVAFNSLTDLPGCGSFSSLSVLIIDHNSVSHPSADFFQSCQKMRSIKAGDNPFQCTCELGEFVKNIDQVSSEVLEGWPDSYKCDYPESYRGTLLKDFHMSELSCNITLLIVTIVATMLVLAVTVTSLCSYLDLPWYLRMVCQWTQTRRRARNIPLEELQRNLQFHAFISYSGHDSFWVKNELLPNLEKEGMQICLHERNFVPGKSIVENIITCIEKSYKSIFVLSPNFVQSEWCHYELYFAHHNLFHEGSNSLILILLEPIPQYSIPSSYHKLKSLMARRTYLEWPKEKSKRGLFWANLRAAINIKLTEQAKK

Row | EC50 [1] | EC50 [2] | Structure (SMILES)
1 | > 5 µM | – | O=C(NCCc1ccc(Br)cc1)[C@@H]1CN(C(=O)c2ccc(C(=O)N3C[C@@H](C(=O)NCCc4ccc(Br)cc4)[C@H](C(=O)NCCc4ccc(Br)cc4)C3)cc2)C[C@H]1C(=O)NCCc1ccc(Br)cc1 (racemic)
2 | – | > 5 nM | CCCCCCCCCCCCCCCCNC(=O)[C@@H]1CN(C(=O)c2ccc(C(=O)N3C[C@@H](C(=O)NCCCCCCCCCCCCCCCC)[C@H](C(=O)NCCCCCCCCCCCCCCCC)C3)cc2)C[C@H]1C(=O)NCCCCCCCCCCCCCCCC
3 | > 5 µM | – | Nc1ccc(CCNC(=O)[C@@H]2CN(C(=O)c3ccc(C(=O)N4C[C@@H](C(=O)NCCc5ccc(N)cc5)[C@H](C(=O)NCCc5ccc(N)cc5)C4)cc3)C[C@H]2C(=O)NCCc2ccc(N)cc2)cc1 (racemic)
4 | > 5 µM | – | O=C(NCCc1ccccc1F)[C@@H]1CN(C(=O)c2ccc(C(=O)N3C[C@@H](C(=O)NCCc4ccccc4F)[C@H](C(=O)NCCc4ccccc4F)C3)cc2)C[C@H]1C(=O)NCCc1ccccc1F (racemic)
5 | > 5 µM | – | O=C(NCCc1ccc(O)cc1)[C@@H]1CN(C(=O)c2ccc(C(=O)N3C[C@@H](C(=O)NCCc4ccc(O)cc4)[C@H](C(=O)NCCc4ccc(O)cc4)C3)cc2)C[C@H]1C(=O)NCCc1ccc(O)cc1 (racemic)
6 | > 5 µM | – | O=C(NCCc1ccc(C(F)(F)F)cc1)[C@@H]1CN(C(=O)c2ccc(C(=O)N3C[C@@H](C(=O)NCCc4ccc(C(F)(F)F)cc4)[C@H](C(=O)NCCc4ccc(C(F)(F)F)cc4)C3)cc2)C[C@H]1C(=O)NCCc1ccc(C(F)(F)F)cc1 (racemic)
7 | – | > 5 nM | CCCCCCCCCCNC(=O)[C@@H]1CN(C(=O)c2ccc(C(=O)N3C[C@@H](C(=O)NCCCCCCCCCC)[C@H](C(=O)NCCCCCCCCCC)C3)cc2)C[C@H]1C(=O)NCCCCCCCCCC
8 | > 5 µM | – | Cc1ccc(CCNC(=O)[C@@H]2CN(C(=O)c3ccc(C(=O)N4C[C@@H](C(=O)NCCc5ccc(C)cc5)[C@H](C(=O)NCCc5ccc(C)cc5)C4)cc3)C[C@H]2C(=O)NCCc2ccc(C)cc2)cc1 (racemic)

Continued, compound first:

Row | Structure (SMILES) | EC50 [1] | EC50 [2]
9 | O=C(NCCc1ccc(-c2ccccc2)cc1)[C@@H]1CN(C(=O)c2ccc(C(=O)N3C[C@@H](C(=O)NCCc4ccc(-c5ccccc5)cc4)[C@H](C(=O)NCCc4ccc(-c5ccccc5)cc4)C3)cc2)C[C@H]1C(=O)NCCc1ccc(-c2ccccc2)cc1 (racemic) | > 5 µM | –
10 | COc1ccc(CCNC(=O)[C@@H]2CN(C(=O)c3ccc(C(=O)N4C[C@@H](C(=O)NCCc5ccc(OC)cc5)[C@H](C(=O)NCCc5ccc(OC)cc5)C4)cc3)C[C@H]2C(=O)NCCc2ccc(OC)cc2)cc1 (racemic) | > 5 µM | –
11 | CCCCCCCCNC(=O)[C@@H]1CN(C(=O)c2ccc(C(=O)N3C[C@@H](C(=O)NCCCCCCCC)[C@H](C(=O)NCCCCCCCC)C3)cc2)C[C@H]1C(=O)NCCCCCCCC | – | > 5 nM
12 | O=C(NCCc1ccc([N+](=O)[O-])cc1)[C@@H]1CN(C(=O)c2ccc(C(=O)N3C[C@@H](C(=O)NCCc4ccc([N+](=O)[O-])cc4)[C@H](C(=O)NCCc4ccc([N+](=O)[O-])cc4)C3)cc2)C[C@H]1C(=O)NCCc1ccc([N+](=O)[O-])cc1 (racemic) | > 5 µM | –
13 | O=C(NCCc1ccc(Cl)cc1)[C@@H]1CN(C(=O)c2ccc(C(=O)N3C[C@@H](C(=O)NCCc4ccc(Cl)cc4)[C@H](C(=O)NCCc4ccc(Cl)cc4)C3)cc2)C[C@H]1C(=O)NCCc1ccc(Cl)cc1 (racemic) | > 5 µM | –
14 | COC(=O)c1ccc(CCNC(=O)[C@@H]2CN(C(=O)c3ccc(C(=O)N4C[C@@H](C(=O)NCCc5ccc(C(=O)OC)cc5)[C@H](C(=O)NCCc5ccc(C(=O)OC)cc5)C4)cc3)C[C@H]2C(=O)NCCc2ccc(C(=O)OC)cc2)cc1 (racemic) | > 5 µM | –
15 | N#Cc1ccc(CCNC(=O)[C@@H]2CN(C(=O)c3ccc(C(=O)N4C[C@@H](C(=O)NCCc5ccc(C#N)cc5)[C@H](C(=O)NCCc5ccc(C#N)cc5)C4)cc3)C[C@H]2C(=O)NCCc2ccc(C#N)cc2)cc1 (racemic) | > 5 µM | –
16 | O=C(NCCc1ccccc1)[C@@H]1CN(C(=O)c2ccc(C(=O)N3C[C@@H](C(=O)NCCc4ccc5ccccc5c4)[C@H](C(=O)NCCc4ccc5ccccc5c4)C3)cc2)C[C@H]1C(=O)NCCc1ccc2ccccc2c1 (racemic) | > 5 µM | –
